Consider six molecules from ChEMBL document CHEMBL4373730, “Practical approaches to evaluating and optimizing brain exposure in early drug discovery” (Eur J Med Chem, 2019).

The nature of data set [1]: Brain to plasma partition coefficient, Kp of the compound in rat. In kind it is ADME, organism-based. The conditions noted are these: brain and plasma.
The nature of the next data set: in vivo. The conditions noted are these: rat, brain and plasma.

Description for in vivo: Unbound brain-to-plasma concentration ratio in rat

As for `CN(C)CCCN1c2ccccc2Sc2ccc(Cl)cc21` [CHLORPROMAZINE], the Kp (in general, tissue or fluid exposure divided by exposure in the circulation) in data set [1] amounted to 8.5. In “in vivo”, this molecule registered a Kp uu of 0.9.
`O=C1Cc2cc(CCN3CCN(c4nsc5ccccc45)CC3)c(Cl)cc2N1` [ZIPRASIDONE] had a Kp in data set [1] of 8.5. The molecule further gave a Kp uu in the data set “in vivo” of 0.9.
Turning to `CN1CCN(C2=Nc3cc(Cl)ccc3Nc3ccccc32)CC1` [CLOZAPINE], in data set [1], the Kp was 8.5. The molecule further registered a Kp uu in the data set “in vivo” of 0.9.
Regarding `OCCOCCN1CCN(C2=Nc3ccccc3Sc3ccccc32)CC1` [QUETIAPINE], in data set [1], the Kp turned out to be 8.5. Besides, the Kp uu in “in vivo” is 0.9.
In turn, `O=C(CCCN1CCC(O)(c2ccc(Cl)cc2)CC1)c1ccc(F)cc1` [HALOPERIDOL] came in with a Kp in data set [1] of 8.5. Also, the Kp uu in “in vivo” was determined as 0.9.
In turn, `Cc1nc2n(c(=O)c1CCN1CCC(c3noc4cc(F)ccc34)CC1)CCCC2` [RISPERIDONE] had a Kp in data set [1] of 8.5. This molecule returned a Kp uu in “in vivo” of 0.9.
